For this assay, the target named is T1, Human sputum neutrophil elastase (Homo sapiens, UniProt P08246).
T1 construct: purchased Elastin Products Co; host or cells: human sputum (natural source)
T1 sequence (P08246 30-247 limits assumed): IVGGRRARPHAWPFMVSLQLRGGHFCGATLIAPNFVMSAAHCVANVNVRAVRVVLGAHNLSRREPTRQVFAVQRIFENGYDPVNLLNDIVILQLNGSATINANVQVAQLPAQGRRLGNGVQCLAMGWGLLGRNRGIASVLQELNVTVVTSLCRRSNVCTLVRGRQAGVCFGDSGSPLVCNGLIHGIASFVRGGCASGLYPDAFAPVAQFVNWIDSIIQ
Nature of the assay: Inhibitor IC50 against human neutrophil elastase (fluorogenic MeOSuc-AAPV-AMC substrate). The assay is classed as biochemical. The following applies: 20 min preincubation, read-out: HNE IC50. Here is the method:
Determination of Inhibitor IC50 Values Against Human Neutrophil Elastase
Human sputum neutrophil elastase (Elastin Products Co.) was diluted into Assay Buffer A (200 mM Tris pH 7.4, 1 mg/ml BSA) to a working concentration of 0.55 U/ml. […] DMSO alone was used as the negative control. MeOSuc-AAPV-AMC (Bachem) substrate was dissolved in DMSO to 20 mM and further diluted to 1 mM in Assay Buffer A immediately before use. Substrate was added to the elastase assay at a final concentration of 1×10^−4 M. The reaction was allowed to proceed for 20 minutes at room temperature and then quenched with acetic acid at a final concentration of 3% (v/v). […] Fluorescence intensity versus inhibitor concentration was plotted and fit to the Hill equation to quantify IC50 values.
Turning to `O=c1oc(-c2cccnc2SCCS(=O)(=O)c2ccccc2)nc2cccc(Cl)c12` [Compound 30], the IC50 fell in the range of 16 to 60 nM.

Consider `COc1cc(C2CC2)c2c(=O)oc(-c3cccnc3N3CCN(CCN(C)C)CC3)nc2c1` [Compound 170], for which the 50% inhibitory concentration (IC50) was 61 to 150 nM.

Take `CCc1cc(OC)cc2nc(-c3cccnc3N3C[C@H](CNC4CC4)[C@H](F)C3)oc(=O)c12` [Compound 258]: the half-inhibitory concentration (IC50) fell in the range of 16 to 60 nM.

For the molecule `CCc1cc(OC)cc2nc(-c3cccnc3N3C[C@@H](CNC4CC4)[C@H](C)C3)oc(=O)c12` [Compound 259], the IC50 is 16 to 60 nM.

Turning to `CCCc1cc(OC)cc2nc(-c3cccnc3N(C)CCN(C)C)oc(=O)c12` [Compound 151], the concentration for half-maximal inhibition (IC50) lay within 16 to 60 nM.

Regarding `CCc1cc(OC)cc2nc(-c3cccnc3N3CCC(C)(C(=O)NCCN(CC)CC)CC3)oc(=O)c12` [Compound 274], the IC50 is less than 15 nM.

With `COCCN(CCOC)c1ncccc1-c1nc2cccc(C)c2c(=O)o1` [Compound 55], the 50% inhibitory concentration (IC50) is greater than 150 nM.

In the case of `CCCc1cc(OC)cc2nc(-c3cccnc3N3CCC(C(=O)C[S+](C)[O-])CC3)oc(=O)c12` (centres unmarked) [Compound 163], the IC50 lay within 61 to 150 nM.

As to `O=c1oc(-c2ccccn2)nc2cccc(Cl)c12` [Compound 12], the IC50 is 61 to 150 nM.

With `COc1cc(C(C)C)c2c(=O)oc(-c3cccnc3N3CCN(CCN4CCOCC4)CC3)nc2c1` [Compound 114], the IC50 fell in the range of 61 to 150 nM.

`CCc1cc(N(C)C)cc2nc(-c3cccnc3N(C)C3CCN(C)C3)oc(=O)c12` (centres unmarked) [Compound 144]: the concentration for half-maximal inhibition (IC50) was greater than 150 nM.

With `CN1CCN(c2ncccc2-c2nc3cccc(C(F)(F)F)c3c(=O)o2)CC1` [Compound 63], the IC50 lay within 16 to 60 nM.

With `Cc1cccc2nc(-c3cccnc3N3CCC[C@H]3C(=O)OC(C)(C)C)oc(=O)c12` [Compound 32], the concentration for half-maximal inhibition (IC50) fell in the range of 16 to 60 nM.

On to `CCCc1cc(OC)cc2nc(-c3cccnc3N3CCN(CC4CC4)CC3)oc(=O)c12` [Compound 157], for which the IC50 lay in the range of 61 to 150 nM.

As to `Cc1cccc2nc(-c3cccnc3F)oc(=O)c12` [Compound 34], the half-inhibitory concentration (IC50) lay within 61 to 150 nM.

As for `CSc1ncccc1-c1nc2cccc(Cl)c2c(=O)o1` [Compound 27], the IC50 was 61 to 150 nM.

For the molecule `CCc1cc(OC)cc2nc(-c3cccnc3N3CCCC(CN4CCOCC4)C3)oc(=O)c12` (centres unmarked) [Compound 243], the IC50 was in the range of 16 to 60 nM.

With `COc1cc(C(C)C)c2c(=O)oc(-c3cnn(C)c3[N+](=O)[O-])nc2c1` [Compound 120], the IC50 lay in the range of 16 to 60 nM.

On to `CCc1cc(OC)cc2nc(-c3ccc(N4CCN(C)CC4)nc3)oc(=O)c12` [Compound 207], for which the IC50 lay within 16 to 60 nM.

As to `Cc1cccc2nc(-c3cccnc3Oc3ccc4c(c3)OCO4)oc(=O)c12` [Compound 37], the IC50 is 16 to 60 nM.

As to `COc1cc(C(C)C)c2c(=O)oc(-c3cccnc3N3CCN(CCN(C)C)CC3)nc2c1` [Compound 115], the IC50 is 61 to 150 nM.

Take `COc1cc(C(C)C)c2c(=O)oc(-c3cnn(C)c3N3CCN(C)CC3)nc2c1` [Compound 123]: the half-maximal inhibitory concentration (IC50) is greater than 150 nM.

As for `CCc1cc(OC)cc2nc(-c3cccnc3N3CCN(CCC(=O)O)CC3)oc(=O)c12` [Compound 213], the half-maximal inhibitory concentration (IC50) was less than 15 nM.

Regarding `COCCN1CCN(c2c(-c3nc4cc(OC)cc(C(C)C)c4c(=O)o3)cnn2C)CC1` [Compound 119], the half-maximal inhibitory concentration (IC50) is greater than 150 nM.

Take `COc1cc(C2CC2)c2c(=O)oc(-c3cccnc3N3CC[C@H](N(C)C)C3)nc2c1` [Compound 165]: the IC50 lay within 61 to 150 nM.

Consider `CCc1cc(OC)cc2nc(-c3cccnc3N3CC[C@H]([N+](C)(C)C)C3)oc(=O)c12` [Compound 232, {1-[3-(5-Ethyl-7-methoxy-4-oxo-4H-benz[d][1,3]oxazin-2-yl)-pyridin-2-yl]-pyrrolidin-3-yl}-trimethyl-ammonium acetate], for which the IC50 is less than 15 nM.

`COCCOCCOCCOCCOCCOCCOCCOc1ncccc1-c1nc2cc(OC)cc(C(C)C)c2c(=O)o1` [Compound 108]: the IC50 was greater than 150 nM.

For the molecule `O=c1oc(-c2ncccc2-n2ccnc2)nc2cccc(Cl)c12` [Compound 70], the half-maximal inhibitory concentration (IC50) was greater than 150 nM.

For the molecule `CCCc1cc(OC)cc2nc(-c3cccnc3N(C)C3CCN(C)C3)oc(=O)c12` (centres unmarked) [Compound 146], the IC50 was greater than 150 nM.

With `COc1cc(C(C)C)c2c(=O)oc(-c3cccnc3N(C)C3CCN(C)C3)nc2c1` (centres unmarked) [Compound 117], the concentration for half-maximal inhibition (IC50) is 61 to 150 nM.

`CCc1cc(OC)cc2nc(-c3cccnc3N3CC[N+](C)(CCOC)CC3)oc(=O)c12` [Compound 230]: the concentration for half-maximal inhibition (IC50) was less than 15 nM.

In the case of `Cc1cccc2nc(-c3ncccc3-n3ccnc3)oc(=O)c12` [Compound 68], the IC50 was greater than 150 nM.

`CCc1cc(OC)cc2nc(-c3cccnc3N3CCN(c4cccnc4)CC3)oc(=O)c12` [Compound 240]: the concentration for half-maximal inhibition (IC50) was less than 15 nM.

Turning to `Cc1cccc2nc(-c3cccc[n+]3[O-])oc(=O)c12` [Compound 73], the concentration for half-maximal inhibition (IC50) was greater than 150 nM.

Regarding `CCCc1cc(OC)cc2nc(-c3cccnc3N3CCN(CCOC)CC3)oc(=O)c12` [Compound 150], the IC50 was in the range of 61 to 150 nM.

As for `Cc1ccc(Sc2ncccc2-c2nc3cccc(C)c3c(=O)o2)cc1` [Compound 24], the IC50 was greater than 150 nM.

Take `Cc1cccc2nc(-c3cnccn3)oc(=O)c12` [Compound 5]: the IC50 was in the range of 61 to 150 nM.

On to `CCc1cc(OC)cc2nc(-c3cccnc3N3CC[C@@H](N4CCNC(=O)C4)C3)oc(=O)c12` [Compound 266], for which the concentration for half-maximal inhibition (IC50) was less than 15 nM.

Turning to `CCc1cc(OC)cc2nc(-c3cccnc3N3CCC(Cc4ccccc4)CC3)oc(=O)c12` [Compound 224], the half-inhibitory concentration (IC50) was 61 to 150 nM.

Take `O=c1oc(-c2cccnc2-n2ccnc2)nc2cccc(Cl)c12` [Compound 71]: the IC50 is greater than 150 nM.

With `COC(=O)[C@H]1CCCN1c1ncccc1-c1nc2cccc(OC)c2c(=O)o1` [Compound 43], the 50% inhibitory concentration (IC50) was greater than 150 nM.

Consider `CCc1cc(OC)cc2nc(-c3cccnc3N3CCC(C)(C(=O)N4CCN(C)CC4)CC3)oc(=O)c12` [Compound 273], for which the IC50 fell in the range of 16 to 60 nM.

For the molecule `CCc1cc(OC)cc2nc(-c3cccnc3N3CCC(CN4CCOCC4)CC3)oc(=O)c12` [Compound 245], the 50% inhibitory concentration (IC50) was less than 15 nM.

Regarding `CCc1cc(OC)cc2nc(-c3cccnc3N3CCN(c4ccccc4)CC3)oc(=O)c12` [Compound 223], the IC50 fell in the range of 61 to 150 nM.

With `Cc1cccc2nc(-c3cccnc3N3CCN(CCN(C)C)CC3)oc(=O)c12` [Compound 180], the IC50 is 16 to 60 nM.

`CCc1cccc2nc(-c3cccnc3N3CC[N+](C)(CC(N)=O)CC3)oc(=O)c12` [Compound 101]: the half-inhibitory concentration (IC50) was less than 15 nM.

Regarding `CCc1cccc2nc(-c3ncccc3-n3ccnc3)oc(=O)c12` [Compound 97], the 50% inhibitory concentration (IC50) is less than 15 nM.

On to `CCc1cc(OC)cc2nc(-c3cccnc3N3CC[C@H](N4CCOCC4)C3)oc(=O)c12` [Compound 262], for which the IC50 was less than 15 nM.

As to `COc1cc(C2CC2)c2c(=O)oc(-c3cccnc3N(C)CCN(C)C)nc2c1` [Compound 172], the IC50 was in the range of 61 to 150 nM.

For `CCN(CC)CC1CN(c2ncccc2-c2nc3cccc(C)c3c(=O)o2)CCO1` (centres unmarked) [Compound 60], the IC50 is greater than 150 nM.

For `CCc1cc(OC)cc2nc(-c3cccnc3N3CCC(CN4CCCC4)CC3)oc(=O)c12` [Compound 272], the 50% inhibitory concentration (IC50) was less than 15 nM.

As to `Cc1cccc2nc(-c3cc[n+]([O-])cc3)oc(=O)c12` [Compound 6], the IC50 was greater than 150 nM.

As to `COc1cc(C2CC2)c2c(=O)oc(-c3cccnc3N3CCN(CCN4CCOCC4)CC3)nc2c1` [Compound 168], the 50% inhibitory concentration (IC50) is 61 to 150 nM.

(Values after patent US7879846B2, “Serine hydrolase inhibitors” (Kyorin Pharmaceutical Co.., Ltd., priority 2006, dated 2011).)
